Test results: PubChem BioAssay AID330 (DTP/NCI, 2004)
Several values for one entry are separate records, joined by “and”; a condition that tells them apart may be missing. Equal values may be shown once. Toxic doses and inconclusive results are not listed. The calls were made as follows: active = survival T/C of 150% or more; inactive = T/C below 125% in these data.

System: P388 leukemia ip, CD2F1 mice, survival T/C
Assay: NCI In Vivo Anticancer Drug Screen. Data for tumor model P388 Leukemia (intraperitoneal) in CD2F1 (CDF1) mice
Settings: endpoint: median survival time, higher = longer survival
In short: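 Mice carrying the transplanted tumor received test compound or vehicle. Survival was recorded in each group, and the value is the treated-group measurement divided by that of the vehicle-treated control group.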

[1] = dose: 50.0 mg/kg/injection, schedule: Q01DX005 (ip), vehicle: saline
[2] = dose: 50.0 mg/kg/injection, schedule: Q01DX009 (ip), vehicle: saline with Tween-80
[3] = dose: 100.0 mg/kg/injection, schedule: Q01DX009 (ip), vehicle: saline with Tween-80
[4] = dose: 200.0 mg/kg/injection, schedule: Q01DX009 (ip), vehicle: saline with Tween-80
[5] = dose: 400.0 mg/kg/injection, schedule: Q01DX009 (ip), vehicle: saline with Tween-80
[6] = dose: 25.0 mg/kg/injection, schedule: Q01DX005 (ip), vehicle: Klucel (hydroxypropylcellulose) (HPC)
[7] = dose: 50.0 mg/kg/injection, schedule: Q01DX005 (ip), vehicle: Klucel (hydroxypropylcellulose) (HPC)
[8] = dose: 100.0 mg/kg/injection, schedule: Q01DX005 (ip), vehicle: Klucel (hydroxypropylcellulose) (HPC)
[9] = dose: 60.0 mg/kg/injection, schedule: Q01DX005 (ip), vehicle: saline with Tween-80
[10] = dose: 120.0 mg/kg/injection, schedule: Q01DX005 (ip), vehicle: saline with Tween-80
[11] = dose: 240.0 mg/kg/injection, schedule: Q01DX005 (ip), vehicle: saline with Tween-80
[12] = dose: 15.0 mg/kg/injection, schedule: Q01DX005 (ip), vehicle: Klucel (hydroxypropylcellulose) (HPC)
[13] = dose: 30.0 mg/kg/injection, schedule: Q01DX005 (ip), vehicle: Klucel (hydroxypropylcellulose) (HPC)
[14] = dose: 60.0 mg/kg/injection, schedule: Q01DX005 (ip), vehicle: Klucel (hydroxypropylcellulose) (HPC)
[15] = dose: 100.0 mg/kg/injection, schedule: Q04DX002 (ip), vehicle: saline with Tween-80
[16] = dose: 200.0 mg/kg/injection, schedule: Q04DX002 (ip), vehicle: saline with Tween-80
[17] = dose: 100.0 mg/kg/injection, schedule: Q04DX002 (ip), vehicle: saline
[18] = dose: 200.0 mg/kg/injection, schedule: Q04DX002 (ip), vehicle: saline
[19] = dose: 400.0 mg/kg/injection, schedule: Q04DX002 (ip), vehicle: saline

Measured: T/C

Cc1c2ccncc2c(C)c2c1[nH]c1ccc(F)cc12
inactive: dose: 16.25 mg/kg/injection, schedule: Q04DX002 (ip), vehicle: Klucel (hydroxypropylcellulose) (HPC) 106 % of control | dose: 32.5 mg/kg/injection, schedule: Q04DX002 (ip), vehicle: Klucel (hydroxypropylcellulose) (HPC) 106 % of control

COc1cc2c(cc1OC)C(Cc1ccc(OC)c(Oc3ccc(CC4c5cc(OC)c(OC)c(O)c5CCN4C)cc3)c1)N(C)CC2 (stereo unspecified)
inactive: dose: 20.0 mg/kg/injection, schedule: Q01DX009 (ip), vehicle: Klucel (hydroxypropylcellulose) (HPC) 106 % of control | dose: 40.0 mg/kg/injection, schedule: Q01DX009 (ip), vehicle: Klucel (hydroxypropylcellulose) (HPC) 107 % of control | dose: 80.0 mg/kg/injection, schedule: Q01DX009 (ip), vehicle: Klucel (hydroxypropylcellulose) (HPC) 111 % of control

CCN(CC)CC(O)c1c(OC)ccc2ccccc12 (stereo unspecified)
inactive: dose: 12.5 mg/kg/injection, schedule: Q01DX005 (ip), vehicle: saline 96 % of control | dose: 25.0 mg/kg/injection, schedule: Q01DX005 (ip), vehicle: saline 96 % of control | [1] 104 % of control and 97 % of control

O=c1[nH][nH]c(=S)n1-c1ccccc1
inactive: [2] 98 % of control | [3] 101 % of control | [4] 94 % of control | [5] 88 % of control

Cc1ccc(C2=NN(c3ccccc3)C(c3ccccc3)C2NC2CCCCC2)cc1 (stereo unspecified)
inactive: [6] 90 % of control | [7] 90 % of control | [8] 89 % of control

CC(C)(C)c1cc(C(O)(C(F)(F)F)C(F)(F)F)c2c(c1)C(C(F)(F)F)(C(F)(F)F)OS2(=O)=O
inactive: [6] 93 % of control | [7] 103 % of control | [8] 92 % of control | dose: 200.0 mg/kg/injection, schedule: Q01DX005 (ip), vehicle: Klucel (hydroxypropylcellulose) (HPC) 91 % of control

CN=C(NC)c1ccc(NC(=O)c2cc(C(=O)Nc3ccc(C(=NC)NC)cc3)cc([N+](=O)[O-])c2)cc1
inactive: dose: 6.25 mg/kg/injection, schedule: Q01DX005 (ip), vehicle: Klucel (hydroxypropylcellulose) (HPC) 107 % of control | dose: 12.5 mg/kg/injection, schedule: Q01DX005 (ip), vehicle: Klucel (hydroxypropylcellulose) (HPC) 119 % of control

Cc1cc(C)c(OC2=C(c3c(C)cc(C)cc3C)C(=O)c3ccccc32)c(C)c1
inactive: [2] 94 % of control | [3] 94 % of control | [4] 86 % of control

[N-]=[N+]=Nc1ccnc2c(C(F)(F)F)cccc12
inactive: [9] 108 % of control | [10] 100 % of control | [11] 92 % of control

N#Cc1cnc(N)[nH]c1=O
inactive: [12] 101 % of control | [13] 97 % of control | [14] 98 % of control and 99 % of control

CCN(CC)c1ccc(N=Nc2nc(Cl)c(/C=C3\C(=O)c4ccccc4C3=C(C#N)C#N)s2)c(NC(C)=O)c1
inactive: [9] 96 % of control | [10] 97 % of control | [11] 95 % of control

COC1=Nc2ccccc2S(=O)(=O)C=C1
inactive: dose: 15.0 mg/kg/injection, schedule: Q01DX005 (ip), vehicle: saline with Tween-80 101 % of control | dose: 30.0 mg/kg/injection, schedule: Q01DX005 (ip), vehicle: saline with Tween-80 104 % of control | [9] 116 % of control and 119 % of control

O=C(OCC1CC=CCC1CCl)c1ccccc1 (stereo unspecified)
inactive: [2] 96 % of control | [3] 99 % of control | [4] 99 % of control

CN(C)Cc1cc(CN(C)C)c(O)c(CN(C)C)c1
inactive: [2] 88 % of control | [3] 93 % of control

CN(C)c1ccc(/C=C/c2ccnc3cc(Cl)ccc23)cc1
inactive: dose: 12.5 mg/kg/injection, schedule: Q01DX009 (ip), vehicle: saline with Tween-80 106 % of control | dose: 25.0 mg/kg/injection, schedule: Q01DX009 (ip), vehicle: saline with Tween-80 116 % of control | [2] 119 % of control

CCOC(=O)C1CCCCC12OCCO2 (stereo unspecified)
inactive: [1] 95 % of control | dose: 100.0 mg/kg/injection, schedule: Q01DX005 (ip), vehicle: saline 96 % of control | dose: 200.0 mg/kg/injection, schedule: Q01DX005 (ip), vehicle: saline 95 % of control

O=C(O)c1c(Br)c(Br)c(Br)c(Br)c1-c1c2ccc(=O)cc-2oc2cc(O)ccc12
inactive: [9] 101 % of control | [10] 105 % of control | [11] 101 % of control

CC(=O)Oc1c(C)c(OC(C)=O)c2c(c1C(C)=O)OC1=CC(O)=C(C(C)=O)C(=O)C12C (stereo unspecified)
inactive: dose: 6.25 mg/kg/injection, schedule: Q01DX009 (ip), vehicle: gum acacia 98 % of control and 102 % of control | dose: 12.5 mg/kg/injection, schedule: Q01DX009 (ip), vehicle: gum acacia 104 % of control and 105 % of control | dose: 25.0 mg/kg/injection, schedule: Q01DX009 (ip), vehicle: gum acacia 100 % of control and 102 % of control | dose: 50.0 mg/kg/injection, schedule: Q01DX009 (ip), vehicle: gum acacia 102 % of control and 110 % of control | dose: 100.0 mg/kg/injection, schedule: Q01DX009 (ip), vehicle: gum acacia 113 % of control and 115 % of control | [15] 97 % of control | [16] 102 % of control | dose: 400.0 mg/kg/injection, schedule: Q04DX002 (ip), vehicle: saline with Tween-80 101 % of control

CCOC(=O)C(=C\c1nncn1-c1ccccc1)/C=C(/O)c1ccccc1
inactive: [12] 97 % of control | [13] 93 % of control | [14] 87 % of control

Cc1cccnc1Nc1ncccc1C
inactive: dose: 60.0 mg/kg/injection, schedule: Q01DX005 (ip), vehicle: saline 102 % of control | dose: 120.0 mg/kg/injection, schedule: Q01DX005 (ip), vehicle: saline 102 % of control | dose: 240.0 mg/kg/injection, schedule: Q01DX005 (ip), vehicle: saline 102 % of control

CC1(C)S(=O)(=O)OCCOS1(=O)=O
inactive: dose: 3.75 mg/kg/injection, schedule: Q01DX005 (ip), vehicle: Klucel (hydroxypropylcellulose) (HPC) 107 % of control | dose: 7.5 mg/kg/injection, schedule: Q01DX005 (ip), vehicle: Klucel (hydroxypropylcellulose) (HPC) 107 % of control and 111 % of control and 115 % of control | [12] 119 % of control

O=S(=O)(/N=C1\c2ccccc2/C(=N\S(=O)(=O)c2ccccc2)C2C3C=CC(C3)C12)c1ccccc1 (stereo unspecified)
inactive: dose: 25.0 mg/kg/injection, schedule: Q01DX001 (ip), vehicle: saline with Tween-80 115 % of control | dose: 50.0 mg/kg/injection, schedule: Q01DX001 (ip), vehicle: saline with Tween-80 100 % of control | dose: 100.0 mg/kg/injection, schedule: Q01DX001 (ip), vehicle: saline with Tween-80 90 % of control

C[C@H](N)C(=O)/C=C/c1ccccc1
inactive: dose: 10.0 mg/kg/injection, schedule: Q01DX005 (ip), vehicle: saline 101 % of control | dose: 20.0 mg/kg/injection, schedule: Q01DX005 (ip), vehicle: saline 100 % of control | dose: 40.0 mg/kg/injection, schedule: Q01DX005 (ip), vehicle: saline 98 % of control

O=c1[nH]c2c([N+](=O)[O-])cc(Cl)cc2nc1/C=C(\O)c1ccncc1
inactive: [14] 102 % of control | dose: 120.0 mg/kg/injection, schedule: Q01DX005 (ip), vehicle: Klucel (hydroxypropylcellulose) (HPC) 99 % of control

CCCCCCCCCCCCCCCC[N+]1([O-])CCCCCC1
inactive: dose: 50.0 mg/kg/injection, schedule: Q01DX009 (ip), vehicle: saline 93 % of control

COc1ccc(-c2c(CC(=O)O)c3cc(OC)ccc3n2Cc2ccc(Cl)cc2)cc1
inactive: [2] 101 % of control | [3] 100 % of control | dose: 100.0 mg/kg/injection, schedule: Q04DX003 (ip), vehicle: saline with Tween-80 90 % of control | [4] 100 % of control | dose: 200.0 mg/kg/injection, schedule: Q04DX003 (ip), vehicle: saline with Tween-80 90 % of control | [5] 91 % of control | dose: 400.0 mg/kg/injection, schedule: Q04DX003 (ip), vehicle: saline with Tween-80 90 % of control

CNC(=S)N/N=C\C(C)=N/N1CCCCCC1
inactive: [17] 97 % of control | [18] 101 % of control | [19] 93 % of control

Clc1nc2nc(Cl)c(Cl)n2c(Cl)c1Cl
inactive: [15] 105 % of control | [16] 117 % of control

CCN(CC)S(=O)(=O)C(=[N+]=[N-])P(=O)(OC)OC
inactive: [17] 100 % of control | [18] 112 % of control | [19] 100 % of control
